Legend:
synaptophysin = experiment: Synaptophysin ELISA of protein isolated from rat brain; format: in vivo; conditions: 21 days after infusion; 1 way ANOVA p>0.05
Description: A) Immunofluorescent microscopy of fixed rat brain for neurons (NeuN) and glia (GFAP) 21 days after acute striatal infusion of 5 μl of either aCSF (control), F127-aCSF or F127-PAN. B) Synaptophysin ELISA of protein isolated from rat brain 21 days after infusion comparing F127-aCSF, F127-PAN and Panobinostat in DMSO against aCSF and untreated controls. […] (1 way ANOVA p>0.05).

SF7761 glioma cell line = experiment: MTT assay, SF7761; format: cell-based, human
Description: (§1) Two independent glioma cell lines (A) SF7761 and (B) SF8628 were dosed with sodium valproate for 72 h, then subjected to an MTT assay to assess the effect of the drug on proliferation of glioma cells. Results are expressed as a % relative to untreated control. […] Two glioma cell lines (A) SF7761 and (B) SF8628 were dosed with sodium valproate for 72 h, followed by 6 h of carboplatin, after which, the drug was washed out and given fresh sodium valproate. Proliferation was assessed by MTT assay, and results expressed as a % relative to the untreated control cells.

glioma cell line = experiment: MTT assay, 6 h sequential dosing on two consecutive days; format: cell-based, human
Description: One glioma cell line thus far has been tested with (A) 6 h dosing of VPA repeated one two consecutive days, followed by assessment of proliferation by MTT.

SF8628 glioma cell line = experiment: MTT assay, SF8628; format: cell-based, human
Description: as §1

[1] = test system: normal hippocampal neuronal and glial cells; experiment: Toxicity in normal hippocampal cultures (B3 tubulin, GFAP staining); format: cell-based; conditions: 6 h dosing, assayed 72 h after
Description: Normal hippocampal cells were plated onto coverslips and grown for 72 h prior to dosing with sodium valproate to assess the toxicity of the drug against normal neuronal and glial cells. Cells were drugged with sodium valproate for 6 h, after which time the drug was washed off and fresh media added. Cells were further incubated for 72 h prior to fixing and staining with B3 tubulin (neuronal marker) and GFAP (glial cell marker) to determine to the toxicity of sodium valproate.

[2] = pre-conditioning with sodium valproate prior to carboplatin
[3] = sodium valproate 72 h, then 6 h carboplatin

| Structure (SMILES) | synaptophysin concentration against aCSF and untreated controls (synaptophysin) | cytotoxicity (proliferation, % relative to untreated control) (SF7761 glioma cell line; 72 h dosing) | combination index (CI) (SF7761 glioma cell line; [2]) | effect of pre-dosing on cytotoxicity of carboplatin (SF7761 glioma cell line; [3]) | cell viability, % relative to control (glioma cell line; 6 h dosing on two consecutive days) | cell viability, combined dosing with carboplatin (glioma cell line; carboplatin and sodium valproate 6 h on two consecutive days) | cytotoxicity (proliferation, % relative to untreated control) (SF8628 glioma cell line; 72 h dosing) | combination index (CI) (SF8628 glioma cell line; [2]) | effect of pre-dosing on cytotoxicity of carboplatin (SF8628 glioma cell line; [3]) | glial toxicity (GFAP) ([1]; 20 mM) | neuronal toxicity (B3 tubulin) [1] |
| --- | --- | --- | --- | --- | --- | --- | --- | --- | --- | --- | --- |
| Cc1[nH]c2ccccc2c1CCNCc1ccc(/C=C/C(=O)NO)cc1 [Panobinostat in DMSO, panobinostat] | No significant difference detected | – | – | – | – | – | – | – | – | – | – |
| CCCC(CCC)C(=O)[O-].[Na+] [sodium valproate] | – | causes cytotoxicity to glioma cells in a dose dependent manner | below 1 | potentiates the cytotoxicity of carboplatin | dose dependent decrease in cell viability | greater decrease in cell viability compared with carboplatin alone | causes cytotoxicity to glioma cells in a dose dependent manner | below 1 | potentiates the cytotoxicity of carboplatin | Some toxicity | minimal neuronal toxicity |

From patent US10278954B2, “Method of treating a CNS disorder using a water-soluble histone deacetylase inhibitor” (priority 2016, dated 2019)
